Article PMC8989888, “Development of optimized drug-like small molecule inhibitors of the SARS-CoV-2 3CL protease for treatment of COVID-19” (Nature Communications, 2022)
Where “and” joins values, the source holds several entries; their conditions need not be identical. Identical values can stand only once. Like-named read-outs stand apart in the source and are kept apart here.

Assays:
SARS-CoV-2 3CL protease [1] = target: T1, SARS-CoV-2 3CL protease (Severe acute respiratory syndrome coronavirus 2, UniProt P0DTD1); test: biochemical; conditions: for Normalized SARS-CoV-2 3CL protease activity: 0.2 µM protease with 50 µM tested compound; for Normalized SARS-CoV-2 3CL protease activity / % SARS-CoV-2 3CL activity: replicates; for IC50: read-out: SARS-CoV-2 3CLpro IC50
SARS-CoV-2 3CL protease [2] = target: T1, SARS-CoV-2 3CL protease; test: cell-based
SARS-CoV-2 3CL protease [3] = target: T1, SARS-CoV-2 3CL protease; type: binding
SARS-CoV-2 = test: microbe, parasite or virus in culture; type: cell-based
SARS-CoV-2 3CL protease [4] = target: T1, SARS-CoV-2 3CL protease; test: biochemical; conditions: for kinact/KI: read-out: SARS-CoV-2 3CLpro kinact/KI
human chymotrypsin = test: Chymotrypsin activity assay (Panc-1 cell lysate); type: biochemical; conditions: 10µM compound; 100 µg Panc-1 cell lysate; replicates
SARS-CoV-2 3CL protease [5] = target: T1, SARS-CoV-2 3CL protease; type: binding; conditions: ITC
[6] = Severe acute respiratory syndrome coronavirus 2, Vero C1008, read-out: SARS-CoV-2 Vero E6 EC50
[7] = Concentration of inhibitor (nM) 0.19382
[8] = Concentration of inhibitor (nM) 0.49485
[9] = Concentration of inhibitor (nM) 0.79588
[10] = Concentration of inhibitor (nM) 1.09691
[11] = Concentration of inhibitor (nM) 1.39794
[12] = Concentration of inhibitor (nM) 1.69897
[13] = Concentration of inhibitor (nM) 2
[14] = Concentration of inhibitor (nM) 2.30103
[15] = Concentration of inhibitor (nM) 2.60206
[16] = Concentration of inhibitor (nM) -0.10721
[17] = Concentration of inhibitor (nM) -0.40824

SMILES: O=C(/C=C/c1ccc(F)cc1)Oc1cc(Cl)c[nH]c1=O [Z14]
- Normalized SARS-CoV-2 3CL protease activity (SARS-CoV-2 3CL protease [1]): 1.002 and 0.9823 and 0.9751
- Absorbance (crystal violet), SARS-CoV-2 3CLpro (SARS-CoV-2 3CL protease [2]): 0.1689 and 0.1739

SMILES: O=C(N[C@@H](CC1CCCCC1)C(=O)N[C@@H](C[C@@H]1CCNC1=O)C(O)S(=O)(=O)O)OCc1cccc(Cl)c1 (some centres unmarked) [EB48]
- binding to 3CL protease by mass spectrometry (in words) (SARS-CoV-2 3CL protease [3]): blocked the covalent binding of 10 equivalents of compound 4
- EC50 (SARS-CoV-2; [6]): 16000 nM
- observed inactivation rate vs compound concentration (Figure S19, replicate values) (SARS-CoV-2 3CL protease [4]): 0.0858 and 0.04 and 0.095 and 0.0226 and 0.0022 and 0.0296 and 0.1194 and 0.0166 and 0.0446 and 0.0488 and 0.0144 and 0.0572 and 0.0269 and -0.02233 and 0.0225 and 0.0208 and 0.0151 and 0.0309
- kinact/KI (SARS-CoV-2 3CL protease [4]): 35000 M⁻¹ s⁻¹
- IC50 (SARS-CoV-2 3CL protease [1]; 20 nM protease): 200 nM
- normalized activity, dose-response curve (Figure S16) (SARS-CoV-2 3CL protease [1]; [7]): 110.351 and 97.4198
- normalized activity, dose-response curve (Figure S16) (SARS-CoV-2 3CL protease [1]; [8]): 103.827 and 92.511
- normalized activity, dose-response curve (Figure S16) (SARS-CoV-2 3CL protease [1]; [9]): 102.384 and 88.7351
- normalized activity, dose-response curve (Figure S16) (SARS-CoV-2 3CL protease [1]; [10]): 98.7453 and 87.9169
- normalized activity, dose-response curve (Figure S16) (SARS-CoV-2 3CL protease [1]; [11]): 87.2647 and 81.1831
- normalized activity, dose-response curve (Figure S16) (SARS-CoV-2 3CL protease [1]; [12]): 80.9285 and 77.1554
- normalized activity, dose-response curve (Figure S16) (SARS-CoV-2 3CL protease [1]; [13]): 69.8871 and 61.2964
- normalized activity, dose-response curve (Figure S16) (SARS-CoV-2 3CL protease [1]; [14]): 58.4065 and 46.4443
- normalized activity, dose-response curve (Figure S16) (SARS-CoV-2 3CL protease [1]; [15]): 43.601 and 36.7527
- normalized activity, dose-response curve (Figure S16) (SARS-CoV-2 3CL protease [1]; [16]): 108.281 and 111.58
- normalized activity, dose-response curve (Figure S16) (SARS-CoV-2 3CL protease [1]; [17]): 100

SMILES: N#CCc1cccc(C(=O)Oc2cncc(Cl)c2)c1 [Z50]
- Normalized SARS-CoV-2 3CL protease activity (SARS-CoV-2 3CL protease [1]): 0.05574 and 0.08721 and 0.4348
- Absorbance (crystal violet), SARS-CoV-2 3CLpro (SARS-CoV-2 3CL protease [2]): 0.1475 and 0.1394

SMILES: O=C(N[C@@H](CC1CCCCC1)C(=O)N[C@@H](C[C@@H]1CCNC1=O)C(O)S(=O)(=O)O)OCc1ccccc1 (some centres unmarked) [SL-4-241]
- binding to 3CL protease by mass spectrometry (in words) (SARS-CoV-2 3CL protease [3]): blocked the covalent binding of 10 equivalents of compound 4
- EC50 (SARS-CoV-2; [6]): 17000 nM
- observed inactivation rate vs compound concentration (Figure S19, replicate values) (SARS-CoV-2 3CL protease [4]): 0.0986 and 0.0638 and 0.0852 and 0.1375 and 0.0874 and 0.0292 and 0.1342 and 0.0676 and 0.0349 and 0.0089 and 0.0058 and 0.057 and 0.065 and 0.0135 and 0.036 and 0.0158 and 0.0274 and 0.003 and 0.0091 and 0.01 and -0.00355
- kinact/KI (SARS-CoV-2 3CL protease [4]): 23300 M⁻¹ s⁻¹
- IC50 (SARS-CoV-2 3CL protease [1]; 20 nM protease): 75 nM
- normalized activity, dose-response curve (Figure S16) (SARS-CoV-2 3CL protease [1]; [7]): 94.2892 and 94.3168
- normalized activity, dose-response curve (Figure S16) (SARS-CoV-2 3CL protease [1]; [8]): 87.5254 and 99.9152
- normalized activity, dose-response curve (Figure S16) (SARS-CoV-2 3CL protease [1]; [9]): 89.3075 and 94.6561
- normalized activity, dose-response curve (Figure S16) (SARS-CoV-2 3CL protease [1]; [10]): 90.077 and 87.1492
- normalized activity, dose-response curve (Figure S16) (SARS-CoV-2 3CL protease [1]; [11]): 78.3315 and 75.5284
- normalized activity, dose-response curve (Figure S16) (SARS-CoV-2 3CL protease [1]; [12]): 69.502 and 62.8473
- normalized activity, dose-response curve (Figure S16) (SARS-CoV-2 3CL protease [1]; [13]): 41.1102 and 41.9808
- normalized activity, dose-response curve (Figure S16) (SARS-CoV-2 3CL protease [1]; [14]): 10.8147 and 10.0871
- normalized activity, dose-response curve (Figure S16) (SARS-CoV-2 3CL protease [1]; [15]): 3.241 and 2.3258
- normalized activity, dose-response curve (Figure S16) (SARS-CoV-2 3CL protease [1]; [16]): 98.5824 and 101.484
- normalized activity, dose-response curve (Figure S16) (SARS-CoV-2 3CL protease [1]; [17]): 100

SMILES: Cc1ncsc1C(=O)Oc1cncc(Cl)c1 [Z91]
- % SARS-CoV-2 3CL activity (SARS-CoV-2 3CL protease [1]; 20 nM protease, log10[nM] 0.19382): 84.3886% and 89.3518%
- % SARS-CoV-2 3CL activity (SARS-CoV-2 3CL protease [1]; 20 nM protease, log10[nM] 0.49485): 71.2882% and 83.5648%
- % SARS-CoV-2 3CL activity (SARS-CoV-2 3CL protease [1]; 20 nM protease, log10[nM] 0.79588): 67.1397% and 68.9815%
- % SARS-CoV-2 3CL activity (SARS-CoV-2 3CL protease [1]; 20 nM protease, log10[nM] 1.09691): 60.4804% and 65.625%
- % SARS-CoV-2 3CL activity (SARS-CoV-2 3CL protease [1]; 20 nM protease, log10[nM] 1.39794): 57.3144% and 59.9537%
- % SARS-CoV-2 3CL activity (SARS-CoV-2 3CL protease [1]; 20 nM protease, log10[nM] 1.69897): 31.5502% and 53.125%
- % SARS-CoV-2 3CL activity (SARS-CoV-2 3CL protease [1]; 20 nM protease, log10[nM] 2): 18.6681% and 32.7546%
- % SARS-CoV-2 3CL activity (SARS-CoV-2 3CL protease [1]; 20 nM protease, log10[nM] 2.30103): 6.9869% and 23.0324%
- % SARS-CoV-2 3CL activity (SARS-CoV-2 3CL protease [1]; 20 nM protease, log10[nM] 2.60206): 2.62% and 4.745%
- % SARS-CoV-2 3CL activity (SARS-CoV-2 3CL protease [1]; 20 nM protease, log10[nM] 2.90309): 0%
- % SARS-CoV-2 3CL activity (SARS-CoV-2 3CL protease [1]; 20 nM protease, log10[nM] -0.10721): 87.0087% and 88.8889%
- % SARS-CoV-2 3CL activity (SARS-CoV-2 3CL protease [1]; 20 nM protease, log10[nM] -0.40824): 100%
- IC50 (SARS-CoV-2 3CL protease [1]; 20 nM protease): 31 nM
- Normalized SARS-CoV-2 3CL protease activity (SARS-CoV-2 3CL protease [1]): 0.02131 and 0.02295 and 0.01967
- Absorbance (crystal violet), SARS-CoV-2 3CLpro (SARS-CoV-2 3CL protease [2]): 0.1428 and 0.134

SMILES: CN(C)S(=O)(=O)c1ccc(C(=O)Oc2cc(Cl)c[nH]c2=O)cc1 [Z97]
- Normalized SARS-CoV-2 3CL protease activity (SARS-CoV-2 3CL protease [1]): 0.9508 and 0.9056 and 0.9639
- Absorbance (crystal violet), SARS-CoV-2 3CLpro (SARS-CoV-2 3CL protease [2]): 0.1516 and 0.1477

SMILES: O=c1c2ccccc2[se]n1-c1ccccc1 [ebselen, reference compound]
- binding to 3CL protease by mass spectrometry (in words) (SARS-CoV-2 3CL protease [3]): binding of multiple ebselen molecules to each 3CL protease molecule
- Normalized chymotrypsin activity (human chymotrypsin): 0.8849 and 0.7812 and 0.7681
- EC50 (SARS-CoV-2; Severe acute respiratory syndrome coronavirus 2, Vero C1008, 72 h, read-out: EC50, inhibition of SARS-CoV-2 viral replication): 800 nM
- % SARS-CoV-2 3CL activity (SARS-CoV-2 3CL protease [1]; 200 nM protease, log10[nM] 0.404879): 89.3778% and 107.442% and 103.181%
- % SARS-CoV-2 3CL activity (SARS-CoV-2 3CL protease [1]; 200 nM protease, log10[nM] 0.882): 94.9547% and 93.3775% and 98.4402%
- % SARS-CoV-2 3CL activity (SARS-CoV-2 3CL protease [1]; 200 nM protease, log10[nM] 1.35912): 94.2663% and 88.5936% and 99.7037%
- % SARS-CoV-2 3CL activity (SARS-CoV-2 3CL protease [1]; 200 nM protease, log10[nM] 1.83624): 88.0185% and 85.2126% and 81.8055%
- % SARS-CoV-2 3CL activity (SARS-CoV-2 3CL protease [1]; 200 nM protease, log10[nM] 2.31336): 61.5633% and 42.9069% and 50.6187%
- % SARS-CoV-2 3CL activity (SARS-CoV-2 3CL protease [1]; 200 nM protease, log10[nM] 2.79048): 10.2823% and 8.339% and 9.272%
- % SARS-CoV-2 3CL activity (SARS-CoV-2 3CL protease [1]; 200 nM protease, log10[nM] 3.26761): 7.59% and 9.629% and 7.886%
- % SARS-CoV-2 3CL activity (SARS-CoV-2 3CL protease [1]; 200 nM protease, log10[nM] 3.74473): 6.213% and 7.476% and 5.15%
- % SARS-CoV-2 3CL activity (SARS-CoV-2 3CL protease [1]; 200 nM protease, log10[nM] 4.22185): 3.895% and 5.307% and 2.98%
- % SARS-CoV-2 3CL activity (SARS-CoV-2 3CL protease [1]; 200 nM protease, log10[nM] 4.69897): -2.597% and 1.403% and 1.1938%
- % SARS-CoV-2 3CL activity (SARS-CoV-2 3CL protease [1]; 200 nM protease, log10[nM] -0.0722425): 107.261% and 104.787% and 112.511%
- % SARS-CoV-2 3CL activity (SARS-CoV-2 3CL protease [1]; 200 nM protease, log10[nM] -0.549364): 92.7537% and 98.0597% and 109.187%
- binding stoichiometry (SARS-CoV-2 3CL protease [5]): didn’t reach saturation until a high molar ratio

SMILES: CC(=O)Nc1ccc(C(=O)Oc2cncc(Cl)c2)cc1 [Z32]
- Normalized SARS-CoV-2 3CL protease activity (SARS-CoV-2 3CL protease [1]): 0.07213 and 0.1423 and 0.1862
- Absorbance (crystal violet), SARS-CoV-2 3CLpro (SARS-CoV-2 3CL protease [2]): 0.1483 and 0.1499
